# Experiments:
# [1] = tested on: MCF-7 cells; assay: Breast Cancer Cell Viability Assay (MCF-7, CellTiter-Glo); format: cell-based; conditions: 5 days' compound exposure; for IC50: Homo sapiens, MCF7, 120 h
# Protocol: MCF-7 cells were adjusted to a concentration of 20,000 cells per mL in RPMI containing 10% FBS and 20 mM HEPES. 16 microliters of the cell suspension (320 cells) was added to each well of a 384 well plate, and the cells were incubated overnight to allow the cells to adhere. The following day an eleven point, serial semilog dilution of each compound was added to the cells in 16 μL at a final concentration ranging from 0.3-0.000003 μM. After 5 days' compound exposure, 16 μL of CellTiter-GLo (Promega, Madison Wis.) was added to the cells the relative luminescence units (RLUs) of each well was determined CellTiter-Glo added to 32 μL of medium without cells was used to obtain a background value. The Percent viability of each sample was determined as follows: (RLU sample-RLU background/RLU untreated cells-RLU background)×100=% viability.
# [2] = molecular target: T1, ER-α (Homo sapiens, UniProt P03372); assay: Breast Cancer Cell ER-α In Cell Western Assay (SP1); format: cell-based; conditions: MCF-7 cells, SP1 antibody, 4 or 24 hr post compound addition; for Emax: MCF7, read-out: ER-α In Cell Western Assay (SP1) Max Response; for DC50: read-out: ER-α In Cell Western Assay (SP1) IC50
# T1 sequence (P03372 1-595): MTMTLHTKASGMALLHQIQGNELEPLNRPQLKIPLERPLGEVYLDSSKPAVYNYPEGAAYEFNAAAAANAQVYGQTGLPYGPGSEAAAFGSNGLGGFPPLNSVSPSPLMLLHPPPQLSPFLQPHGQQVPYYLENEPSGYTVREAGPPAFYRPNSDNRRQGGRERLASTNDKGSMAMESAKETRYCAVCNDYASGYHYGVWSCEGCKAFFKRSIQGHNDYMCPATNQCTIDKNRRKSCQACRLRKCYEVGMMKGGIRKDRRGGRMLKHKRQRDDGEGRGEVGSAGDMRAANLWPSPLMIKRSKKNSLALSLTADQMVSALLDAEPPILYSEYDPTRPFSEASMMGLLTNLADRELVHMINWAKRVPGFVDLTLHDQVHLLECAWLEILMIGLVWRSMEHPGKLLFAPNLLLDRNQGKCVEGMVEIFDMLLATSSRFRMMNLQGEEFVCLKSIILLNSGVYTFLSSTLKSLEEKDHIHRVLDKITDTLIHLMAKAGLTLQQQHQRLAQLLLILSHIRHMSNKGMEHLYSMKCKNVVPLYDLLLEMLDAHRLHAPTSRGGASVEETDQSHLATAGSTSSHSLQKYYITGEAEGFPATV
# Protocol: MCF-7 cells were adjusted to a concentration of 200,000 cells per mL in RPMI containing 10% charcoal-stripped FBS and 20 mM HEPES. 16 microliters of the cell suspension (3200 cells) was added to each well of a poly-D-lysine 384 well plate, and the cells were incubated overnight to allow the cells to adhere. The following day an eleven point, serial semilog dilution of each compound was added to the cells in 16 μL at a final concentration ranging from 0.3-0.000003 μM. At 4 or 24 hr post compound addition, the cells were fixed (10% formalin in PBS) for 20 minutes. Cells were permeablized in PBS 0.1% Triton and blocked with LICOR blocking buffer (50 μL1/well, 90′). The wells were then incubated overnight at 4° C. with SP1 rabbit monoclonal Ab (Thermo Scientific) diluted 1:1000 in LICOR blocking buffer/0.1% Tween-20. Wells which were treated with blocking buffer with Tween but no antibody were used as a background control. Wells were washed with 0.1% Tween-20/PBS and then incubated in goat anti-rabbit IRDye™ 800CW (LICOR Inc.; 1:1000) and DRAQ5 DNA dye (1:2000 for 2 mM stock) diluted in LICOR blocking buffer containing 0.1% Tween-20 and 0.01% SDS for 60 minutes. Cells were washed (50 μl/well, 5′ each) in 0.1% Tween-20/PBS. Plates were scanned on a LICOR Odyssey infrared imaging system. Integrated intensities in the 800 nm channel and 700 nm channel were measured to determine levels of ER and DNA respectively. Percent ER levels were determined as follows: (Integrated intensity 800 nm sample/integrated intensity 700 nm sample)/(Integrated intensity 800 nm untreated cells/integrated intensity 700 nm untreated cells)×100=% ER levels.
SMILES,MCF7 Viability Assay Max Response [1],IC50 [1] [nM],Emax [2] [%],DC50 [2] [nM]
"CC/C(=C(/c1ccc(/C=C/C(=O)O)cc1)c1ccc2[nH]ncc2c1)c1ccc(Cl)cc1C#N [Compound 137, (E)-3-(4-((E)-2-(4-Chloro-2-cyanophenyl)-1-(1H-indazol-5-yl)but-1-en-1-yl)phenyl)acrylic acid]",++ (++ = a single % value ≧ 40%),≤ 100,≥ 40,≤ 100
"CC/C(=C(/c1ccc(/C=C/C(=O)O)cc1)c1ccc2[nH]ncc2c1)c1cccc(OC(F)(F)F)c1 [Compound 83, (E)-3-(4-((E)-1-(1H-Indazol-5-yl)-2-(3-(trifluoromethoxy)phenyl)but-1-en-1-yl)phenyl)acrylic acid]",++ (++ = a single % value ≧ 40%),≤ 100,≥ 40,≤ 100
"O=C(O)/C=C/c1ccc(/C(=C(/CCF)c2ccccc2)c2ccc3[nH]ncc3c2)cc1 [Compound 66, (E)-3-(4-((E)-4-Fluoro-1-(1H-indazol-5-yl)-2-phenylbut-1-en-1-yl)phenyl)acrylic acid]",++ (++ = a single % value ≧ 40%),≤ 100,≥ 40,≤ 100
"CC(C)/C(=C(/c1ccc(/C=C/C(=O)O)cc1)c1ccc2[nH]ncc2c1)c1ccccc1 [Compound 55, (E)-3-(4-((E)-1-(1H-Indazol-5-yl)-3-methyl-2-phenylbut-1-en-1-yl)phenyl)acrylic acid]",++ (++ = a single % value ≧ 40%),≤ 100,≥ 40,≤ 100
"CC/C(=C(/c1ccc(/C=C/C(=O)O)cc1)c1ccc2[nH]ncc2c1)c1ccc(Cl)cc1 [Compound 4, (E)-3-(4-((E)-2-(4-Chlorophenyl)-1-(1H-indazol-5-yl)but-1-en-1-yl)phenyl)acrylic acid]",++ (++ = a single % value ≧ 40%),≤ 100,≥ 40,
"O=C(O)/C=C/c1ccc(/C(=C(\c2ccccc2Cl)C2CC2)c2ccc3[nH]ncc3c2)cc1 [Compound 57, (E)-3-(4-((E)-2-(2-Chlorophenyl)-2-cyclopropyl-1-(1H-indazol-5-yl)vinyl)phenyl)acrylic acid]",++ (++ = a single % value ≧ 40%),≤ 100,≥ 40,≤ 100
"CC/C(=C(/c1ccc(/C=C/C(=O)O)cc1)c1ccc2[nH]ncc2c1)c1cccc(C#N)c1 [Compound 44, (E)-3-(4-((E)-2-(3-Cyanophenyl)-1-(1H-indazol-5-yl)but-1-en-1-yl)phenyl)acrylic acid]",++ (++ = a single % value ≧ 40%),≤ 100,≥ 40,
"CC/C(=C(/c1ccc(/C=C/C(=O)O)cc1)c1cc2cn[nH]c2cc1C)c1ccccc1 [Compound 38, (E)-3-(4-((E)-1-(6-Methyl-1H-indazol-5-yl)-2-phenylbut-1-en-1-yl)phenyl)acrylic acid]",++ (++ = a single % value ≧ 40%),> 100,≥ 40,> 100
"O=C(O)/C=C/c1ccc(/C(=C(\c2ccc(F)cc2Cl)C2CC2)c2ccc3[nH]ncc3c2)cc1 [Compound 115, (E)-3-(4-((E)-2-(2-Chloro-4-fluorophenyl)-2-cyclopropyl-1-(1H-indazol-5-yl)vinyl)phenyl)acrylic acid]",++ (++ = a single % value ≧ 40%),≤ 100,≥ 40,≤ 100
"CC/C(=C(/c1ccc(/C=C/C(=O)O)cc1)c1ccc2[nH]ncc2c1)c1cccc(O)c1 [Compound 93, (E)-3-(4-((E)-2-(3-Hydroxyphenyl)-1-(1H-indazol-5-yl)but-1-en-1-yl)phenyl)acrylic acid]",++ (++ = a single % value ≧ 40%),≤ 100,≥ 40,≤ 100

# Reference: patent US8455534B2, “Estrogen receptor modulators and uses thereof” (Aragon Pharmaceuticals, Inc., priority 2010, dated 2013)
